Literature values in US11389512B2, “Use of low molecular weight fractions of human serum albumin in treating diseases” (Ampio Pharmaceuticals, Inc., priority 2015, dated 2022).

What was measured:
[1] = system: platelet activating factor
[2] = in vivo

Row | SMILES | inhibition of platelet activating factor [1] | time to be cleared from the body [2] [days]
1 | CC1NC(=O)C(CC(=O)O)NC1=O (centres unmarked) [DA-DKP, 3-methyl-2,5-diketopiperazine-6-acetic acid] | inhibit | 
2 | CC(=O)Oc1ccccc1C(=O)O [aspirin, acetylsalicylic acid] |  | 5
